Experimental data from PubChem BioAssay (NCI).
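Step 1: Grow cells in 96-well plates. Step 2: Expose to compound for 48 hours at 5 concentrations. Step 3: Interpolate endpoints linearly; if unreached, use highest concentration. Abbreviation: GI50, concentration required for 50% inhibition of growth. Definition used: TGI = concentration required for complete inhibition of growth.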

Legend:
Experiment in all cases: NCI tumour cell line growth inhibition, 48 h
MDA-MB-231 breast = test system: MDA-MB-231 breast
UACC-257 melanoma = test system: UACC-257 melanoma
CAKI-1 renal = test system: CAKI-1 renal
SR leukemia = test system: SR leukemia
SN12C renal = test system: SN12C renal
HOP-92 NSCLC = test system: HOP-92 NSCLC
SK-OV-3 ovarian = test system: SK-OV-3 ovarian
SW-620 colon = test system: SW-620 colon
MCF7 breast = test system: MCF7 breast
K-562 leukemia = test system: K-562 leukemia
OVCAR-3 ovarian = test system: OVCAR-3 ovarian
IGROV1 ovarian = test system: IGROV1 ovarian
HCC-2998 colon = test system: HCC-2998 colon
SK-MEL-5 melanoma = test system: SK-MEL-5 melanoma
NCI-H226 lung = test system: NCI-H226 lung
UO-31 renal = test system: UO-31 renal
SNB-75 CNS = test system: SNB-75 CNS
SF-295 CNS = test system: SF-295 CNS
A549 NSCLC = test system: A549 NSCLC
DU-145 prostate = test system: DU-145 prostate
KM12 colon = test system: KM12 colon
OVCAR-4 ovarian = test system: OVCAR-4 ovarian
COLO 205 colon = test system: COLO 205 colon
OVCAR-8 ovarian = test system: OVCAR-8 ovarian
786-0 renal = test system: 786-0 renal
NCI/ADR-RES ovarian = test system: NCI/ADR-RES ovarian
MDA-MB-435 = test system: MDA-MB-435
RXF 393 renal = test system: RXF 393 renal
SK-MEL-2 melanoma = test system: SK-MEL-2 melanoma
MALME-3M melanoma = test system: MALME-3M melanoma
TK-10 renal = test system: TK-10 renal
M14 melanoma = test system: M14 melanoma
EKVX NSCLC = test system: EKVX NSCLC
HCT-116 colon = test system: HCT-116 colon
UACC-62 melanoma = test system: UACC-62 melanoma
OVCAR-5 ovarian = test system: OVCAR-5 ovarian
BT-549 breast = test system: BT-549 breast
HT29 colon = test system: HT29 colon
A498 renal = test system: A498 renal
T-47D breast = test system: T-47D breast
SF-539 CNS = test system: SF-539 CNS
NCI-H522 lung = test system: NCI-H522 lung
HL-60(TB) leukemia = test system: HL-60(TB) leukemia
HS 578T breast = test system: HS 578T breast
MOLT-4 leukemia = test system: MOLT-4 leukemia
NCI-H460 lung = test system: NCI-H460 lung
U251 CNS = test system: U251 CNS
SNB-19 CNS = test system: SNB-19 CNS
LOX IMVI melanoma = test system: LOX IMVI melanoma
HCT-15 colon = test system: HCT-15 colon
HOP-62 NSCLC = test system: HOP-62 NSCLC
ACHN renal = test system: ACHN renal
SK-MEL-28 melanoma = test system: SK-MEL-28 melanoma
PC-3 prostate = test system: PC-3 prostate
SF-268 CNS = test system: SF-268 CNS

SMILES: Cc1cc2nc3c4cc(Cl)ccc4n(CC(=O)NCCN(C)C)c3nc2cc1C
- GI50 (MDA-MB-231 breast): 2.25 µM
- TGI (MDA-MB-231 breast): 6.58 µM
- GI50 (UACC-257 melanoma): 1.87 µM
- TGI (UACC-257 melanoma): 3.97 µM
- GI50 (CAKI-1 renal): 3.46 µM
- TGI (CAKI-1 renal): 18.1 µM
- GI50 (SR leukemia): 2.42 µM
- TGI (SR leukemia): 6.64 µM
- GI50 (SN12C renal): 15.2 µM
- TGI (SN12C renal): 29.4 µM
- GI50 (HOP-92 NSCLC): 2.2 µM
- TGI (HOP-92 NSCLC): 22.8 µM
- GI50 (SK-OV-3 ovarian): 14.3 µM
- TGI (SK-OV-3 ovarian): 29.1 µM
- GI50 (SW-620 colon): 1.57 µM
- TGI (SW-620 colon): 3.21 µM
- GI50 (MCF7 breast): 1.48 µM
- TGI (MCF7 breast): 3.15 µM
- GI50 (K-562 leukemia): 2.28 µM
- TGI (K-562 leukemia): 7.36 µM
- GI50 (OVCAR-3 ovarian): 14.6 µM
- TGI (OVCAR-3 ovarian): 27.8 µM
- GI50 (IGROV1 ovarian): 12.7 µM
- TGI (IGROV1 ovarian): 26.5 µM
- GI50 (HCC-2998 colon): 11.7 µM
- TGI (HCC-2998 colon): 23.9 µM
- GI50 (SK-MEL-5 melanoma): 1.77 µM
- TGI (SK-MEL-5 melanoma): 3.37 µM
- GI50 (NCI-H226 lung): 9.43 µM
- TGI (NCI-H226 lung): 26.1 µM
- GI50 (UO-31 renal): 1.02 µM
- TGI (UO-31 renal): 2.22 µM
- GI50 (SNB-75 CNS): 13.2 µM
- TGI (SNB-75 CNS): 26.5 µM
- GI50 (SF-295 CNS): 16.4 µM
- TGI (SF-295 CNS): 29.9 µM
- GI50 (A549 NSCLC): 2.02 µM
- TGI (A549 NSCLC): 5.02 µM
- GI50 (DU-145 prostate): 13.7 µM
- TGI (DU-145 prostate): 26.6 µM
- GI50 (KM12 colon): > 100 µM
- TGI (KM12 colon): > 100 µM
- GI50 (OVCAR-4 ovarian): 15.9 µM
- TGI (OVCAR-4 ovarian): 39.2 µM
- GI50 (COLO 205 colon): 75.6 µM
- TGI (COLO 205 colon): > 100 µM
- GI50 (OVCAR-8 ovarian): 1.91 µM
- TGI (OVCAR-8 ovarian): 3.87 µM
- GI50 (786-0 renal): 1.57 µM
- TGI (786-0 renal): 3.1 µM
- GI50 (NCI/ADR-RES ovarian): 5.64 µM
- TGI (NCI/ADR-RES ovarian): 18.5 µM
- GI50 (MDA-MB-435): 1.9 µM
- TGI (MDA-MB-435): 3.77 µM
- GI50 (RXF 393 renal): 1.67 µM
- TGI (RXF 393 renal): 3.42 µM
- GI50 (SK-MEL-2 melanoma): 16 µM
- TGI (SK-MEL-2 melanoma): 29.8 µM
- GI50 (MALME-3M melanoma): 1.69 µM
- TGI (MALME-3M melanoma): 3.2 µM
- GI50 (TK-10 renal): 19.7 µM
- TGI (TK-10 renal): 33.9 µM
- GI50 (M14 melanoma): 1.64 µM
- TGI (M14 melanoma): 3.11 µM
- GI50 (EKVX NSCLC): 10.6 µM
- TGI (EKVX NSCLC): 23.3 µM
- GI50 (HCT-116 colon): 1.73 µM
- TGI (HCT-116 colon): 3.29 µM
- GI50 (UACC-62 melanoma): 2.14 µM
- TGI (UACC-62 melanoma): 5.26 µM
- GI50 (OVCAR-5 ovarian): 2.04 µM
- TGI (OVCAR-5 ovarian): 4.68 µM
- GI50 (BT-549 breast): 13.6 µM
- TGI (BT-549 breast): 26.8 µM
- GI50 (HT29 colon): 1.67 µM
- TGI (HT29 colon): 3.18 µM
- GI50 (A498 renal): 18 µM
- TGI (A498 renal): 31.8 µM
- GI50 (T-47D breast): > 100 µM
- TGI (T-47D breast): > 100 µM
- GI50 (SF-539 CNS): 1.74 µM
- TGI (SF-539 CNS): 3.21 µM
- GI50 (NCI-H522 lung): 12.7 µM
- TGI (NCI-H522 lung): 25.9 µM
- GI50 (HL-60(TB) leukemia): 1.91 µM
- TGI (HL-60(TB) leukemia): 4.57 µM
- GI50 (HS 578T breast): 13.5 µM
- TGI (HS 578T breast): 35.5 µM
- GI50 (MOLT-4 leukemia): 2.2 µM
- TGI (MOLT-4 leukemia): 6.18 µM
- GI50 (NCI-H460 lung): 1.79 µM
- TGI (NCI-H460 lung): 3.62 µM
- GI50 (U251 CNS): 1.66 µM
- TGI (U251 CNS): 3.1 µM
- GI50 (SNB-19 CNS): 16.1 µM
- TGI (SNB-19 CNS): 31.2 µM
- GI50 (LOX IMVI melanoma): 1.19 µM
- TGI (LOX IMVI melanoma): 2.49 µM
- GI50 (HCT-15 colon): 1.86 µM
- TGI (HCT-15 colon): 4.01 µM
- GI50 (HOP-62 NSCLC): 11.5 µM
- TGI (HOP-62 NSCLC): 26.4 µM
- GI50 (ACHN renal): 1.5 µM
- TGI (ACHN renal): 2.82 µM
- GI50 (SK-MEL-28 melanoma): 1.74 µM
- TGI (SK-MEL-28 melanoma): 3.15 µM
- GI50 (PC-3 prostate): 11.1 µM
- TGI (PC-3 prostate): 71.7 µM
- GI50 (SF-268 CNS): 13.9 µM
- TGI (SF-268 CNS): 30.5 µM
